Test results published in patent US4582827A, “Pesticidal diphenylaziridines” (priority 1983, dated 1986).

How the values were obtained:
[1] = tested on: Salmonella typhimurium strains TA 98, TA 100, TA 1535, TA 1537, TA 1538, TA 1978; test: Ames assay (spot test), revertant colonies; type: cell-based
Procedure: This means that aziridine compounds, 1, 10, or 11, will not cause mutations in DNA arising from potential changes in frame shift and/or base pairing. Compounds 1, 10 and 11 were tested for mutagenic properties using the following experimental procedure.
Potential mutagenic and carcinogenic properties of the compounds were evaluated with standard Ames assay procedures (Ames et al, "Mutation Res.", 31, p. 347, 1975). This assay used strains of Salmonella typhimurium selected for sensitivity and specificity in being reverted from a histidine requirement back to prototrophy by a wide variety of mutagens. Potential changes in frameshift were evaluated using strains TA 98, TA 1537 and TA 1538, while changes in base pairing were detected using strains TA 100 and TA 1535. In addition, strain TA 1978 was used, in combination with TA 1538, to evaluate whether the agent killed bacteria by damage to DNA that could be repaired by this strain. Initially, the compounds were screened using the spot test, in which 1000 μgm of material dissolved in 10 μl of DNSO was applied to the middle of the plate.
Dose-response tests were not performed because the results were negative. All the tests were carried out in the presence and absence of an S9 rat liver preparation and contained a positive control (2-acetylaminofluorene,AAF) and a negative control (DMSO).

H. virescens = test: Incorporation into H. virescens diet; type: in vivo, Heliothis virescens; settings: as much as 20 mM in diet
Procedure: Compounds 1, 10, 11, 13 and 14 were incorporated into H. virescens diet in the same manner as M. Sexta. Diets containing as much as 20 mM of each compound had little effect on larval development time, pupal weight or time to adult emergence.

[2] = tested on: tobacco hornworm (Manduca sexta) larvae; test: Tobacco hornworm growth and developmental responses to feeding on diets containing the compounds; type: in vivo
Procedure: The compounds produced and described in Example 1 were then tested for pesticidal activity against the tobacco hornworm (Manduca sexta). The screening procedure for these tests began with the larval stage and continued through the pupal and adult stages and finally evaluated egg production. The studies thus permitted the evaluation of the effects of the compounds over several subsequent developmental stages in the total life cycle of the insect, giving estimates of acute toxicity (insecticidalor larvicidal activity) as well as prolonged or delayed effects on development (growth regulation) and reproduction (chemosterilization). The latter are of special importance in conjunction with the integrated pest management approach to insect control.
The test compounds were incorporated into the artificial diet of tobacco hornworm larvae and their subsequent growth and developmental responses were monitored using the following parameters: larval mortality including determination of LD50 values, rate of larval development and weight gain, percent pupation, pupal weight and degree of deformities, percent adult emergence and measures of reproductive capacity such as the number of developed ooctyes, fecundity and fertility. The protocol for the screening tests has been developed over a number of years by Dahlman et al., Comp. Biochem. Physiol. 51A, 33, (1975); Comp. Biochem. Physiol., 52A, 105 (1975); Ent. Exp. et Appl., 22, 123 (1977); Palumbo and D. L. Dahlman, J. Econ. Entomol. 71, 674 (1978); D. L. Dahlman, Ent. Exp. et Appl., 24, 327 (1978).
Each treatment used 15 newly ecdysed fifth-instar larvae. Death of larvae within a few hours to several days of initial exposure was considered to be acute toxicity. However, the compounds may reduce the maximum size attained by larvae and/or may retard growth so that larvae require additional time to attain their maximum size. Developmental parameters subsequent to the feeding stage also may be affected. […] Mortality may occur in the pupal stage or emerging adults may have wrinkled wings or other deformities. The number of eggs produced by treated females may be reduced and/or unfertile. Although acute toxicity is desirable in the control of any insect, the delayed effects which result in poor survival and reduced reproductive capacity are significant factors in the long-range program of pest management systems.
Continuous cultures of M. sexta are maintained according to the procedures of Yamamoto, J. Econ. Entomol., 62, p. 1427 (1969). Ingredients of the diet formulation include sugar, casein, wheat germ oil, cholesterol, salt mixture, yeast, vitamins, antioxidants and fungal inhibitors, such as ascorbic acid, sorbic acid, formaldehyde and methyl-p-benzoate. All are incorporated into a liquid agar base which, when poured into holding pans, solidifies to form an adequate substrate upon which the insect larvae feed. Nearly any test material can be uniformly incorporated into such a diet. Thus, exposure to experimental compounds can be evaluated during all or any part of the larval stage. In addition, chronic or long-term effects in subsequent life stages can also be monitored.
The results from these studies, in which the 1,2-diphenylaziridines of Example 1 were incorporated singly into the diet of M. sexta at a concentration of 5 mM are presented in the following Table I.

[3] = tested on: tobacco hornworm larvae (newly ecdysed fifth-instar); test: Topical application to tobacco hornworm larvae; type: in vivo, Manduca sexta
Procedure: The test compounds were dissolved either in acetone or hexane and applied to the integument of the test insect with a micro applicator. Newly ecdysed fifth-instar tobacco hornworm larvae weighing between 1-1.5 g were used and toxicity data were obtained in the same way as previously described.

H. virescens larvae = test: Topical application to H. virescens larvae; type: in vivo, Heliothis virescens; settings: within 48 hr
mammals = settings: cited from earlier work

Clc1ccc(N2CC2c2ccccc2Cl)cc1 (stereo not shown) [Compound 11]
Mean number of revertant colonies per plate, TA 98 +S9 ([1]; strain TA 98, +S9): 44.7 colonies per plate | Mean number of revertant colonies per plate, TA 98 -S9 ([1]; strain TA 98, -S9): 27.3 colonies per plate | Mean number of revertant colonies per plate, TA 100 +S9 ([1]; strain TA 100, +S9): 58.3 colonies per plate | Mean number of revertant colonies per plate, TA 100 -S9 ([1]; strain TA 100, -S9): 28.0 colonies per plate | Mean number of revertant colonies per plate, TA 1535 +S9 ([1]; strain TA 1535, +S9): 15.3 colonies per plate | Mean number of revertant colonies per plate, TA 1535 -S9 ([1]; strain TA 1535, -S9): 16.3 colonies per plate | Mean number of revertant colonies per plate, TA 1537 +S9 ([1]; strain TA 1537, +S9): 13.7 colonies per plate | Mean number of revertant colonies per plate, TA 1537 -S9 ([1]; strain TA 1537, -S9): 9.7 colonies per plate | Mean number of revertant colonies per plate, TA 1538 +S9 ([1]; strain TA 1538, +S9): 26.0 colonies per plate | Mean number of revertant colonies per plate, TA 1538 -S9 ([1]; strain TA 1538, -S9): 13.3 colonies per plate | Mean number of revertant colonies per plate, TA 1978 +S9 ([1]; strain TA 1978, +S9): 196.0 colonies per plate | Mean number of revertant colonies per plate, TA 1978 -S9 ([1]; strain TA 1978, -S9): 209.7 colonies per plate | mutagenicity ([1]; with and without S9 / mammalian liver enzymes): not mutagenic | effect on larval development time, pupal weight or time to adult emergence (H. virescens): little effect | % Adult Emergence ([2]; 1 mM in diet): 100% | % Adults ([2]; 1 mM in diet): 100% | % Malformed Adults ([2]; 1 mM in diet): 7% | % Pupation ([2]; 1 mM in diet): 100% | Days to Max Wt ([2]; 1 mM in diet): 5.9 ± .1 days | Max Larval Wt ([2]; 1 mM in diet): 8.29 g | Mean No. of Eggs ([2]; 1 mM in diet): 74 ± 22 | No. of female Adults ([2]; 1 mM in diet): 4 | Total No. of Adults ([2]; 1 mM in diet): 14 | larval weight ([2]; 1 mM in diet): a slight reduction in larval weight | % Adult Emergence ([2]; 2.5 mM in diet): 100% | % Adults ([2]; 2.5 mM in diet): 60% | % Malformed Adults ([2]; 2.5 mM in diet): 0% | % Pupation ([2]; 2.5 mM in diet): 60% | Days to Max Wt ([2]; 2.5 mM in diet): 7.7 ± 0.6 days | Max Larval Wt ([2]; 2.5 mM in diet): 6.77 g | Mean No. of Eggs ([2]; 2.5 mM in diet): 15 ± 7 | No. of female Adults ([2]; 2.5 mM in diet): 7 | Total No. of Adults ([2]; 2.5 mM in diet): 9 | maximum larval weight and mean number of eggs ([2]; 2.5 mM in diet): reduced maximum larval weight and the mean number of eggs | percent pupation ([2]; 2.5 mM in diet): lowered the percent pupation | larval death (words in table) ([2]; 5 mM in diet): ALL DEAD WITHIN 24 HR OF START OF TEST | larval mortality ([2]; 5 mM in diet): all or nearly all larvae died | symptoms of larvae ([2]; 5 mM in diet): extreme agitation of larvae, oral and anal expulsion of fluids and ultimately, death | time until all larvae dead ([2]; 5 mM in diet): ≤ 24 h | oral activity ([2]; diet, Example 2): good oral activity | larval mortality (acute toxicity) ([2]; in 24-72 hours, summary of Tables I and II): 100% | time to 100% larval mortality ([2]; summary of Tables I and II): 24 to 72 h | larvae killed ([3]; 500 μg/larva (400 ppm), within 48 hr): 80% | developmental effects ([3]; 250 ppm topical): increased larval developmental time, reduced maximum weight and fewer numbers of eggs | mortality at 250 ppm, 250 µg/g ([3]; Manduca sexta, 250 ppm topical, read-out: larval mortality): 30% | topical activity against the tobacco hornworm (comparison in words) ([3]; topical): less active than Compound 13

Fc1ccc(N2CC2c2ccccc2F)cc1 (stereo not shown) [Compound 15]
% Adult Emergence ([2]; 5 mM in diet): 60% | % Malformed Adults ([2]; 5 mM in diet): 0% | % Pupation ([2]; 5 mM in diet): 67% | Days to Max Wt ([2]; 5 mM in diet): 6.7 ± .4 days | Max Larval Wt ([2]; 5 mM in diet): 8.04 ± .41 g | Mean No. of Eggs ([2]; 5 mM in diet): 67 ± 42 | No. of female Adults ([2]; 5 mM in diet): 3 | Total No. of Adults ([2]; 5 mM in diet, all tests began with 15 larvae): 9 | size of surviving larvae ([3]; 125 μg/larvae): smaller than controls | mortality at 125 µg/larva ([3]; Manduca sexta, topical, 125 μg/larvae, during the entire 5th instar): 20% | mortality at 250 µg/larva ([3]; Manduca sexta, topical, 250 μg/larva, within 24 hr): 100% | larvae killed (H. virescens larvae; 62.5 μg/larva or 625 ppm topical, 100 mg larvae): 60% | larvae killed (H. virescens larvae; 312 ppm topical): 40%

CC1CN1P(=O)(N1CC1C)N1CC1C (stereo not shown) [metepa, tris(2-methyl-1-aziridinyl)phosphine oxide]
toxicity reported in the literature (mammals): carcinogenic and mutagenic properties

O=P(N1CC1)(N1CC1)N1CC1 [tepa, tris(1-aziridinyl)-phosphine oxide]
toxicity reported in the literature (mammals): carcinogenic and mutagenic properties
